Data published in ChEMBL document CHEMBL4699491, “Identification of TNO155, an Allosteric SHP2 Inhibitor for the Treatment of Cancer” (J Med Chem, 2020).
In brackets after ≈: the same amount, converted by molar mass.

Tests used:
A-375 = assay: Antiproliferative activity against human A-375 cells; format: functional, cell-based
[1] = target: Serine/threonine-protein kinase B-raf (Homo sapiens, UniProt P15056); assay: Inhibition of RAF in human A-375 cells assessed as reduction in p-ERK levels; format: cell-based
Chain of Serine/threonine-protein kinase B-raf (P15056 whole entry): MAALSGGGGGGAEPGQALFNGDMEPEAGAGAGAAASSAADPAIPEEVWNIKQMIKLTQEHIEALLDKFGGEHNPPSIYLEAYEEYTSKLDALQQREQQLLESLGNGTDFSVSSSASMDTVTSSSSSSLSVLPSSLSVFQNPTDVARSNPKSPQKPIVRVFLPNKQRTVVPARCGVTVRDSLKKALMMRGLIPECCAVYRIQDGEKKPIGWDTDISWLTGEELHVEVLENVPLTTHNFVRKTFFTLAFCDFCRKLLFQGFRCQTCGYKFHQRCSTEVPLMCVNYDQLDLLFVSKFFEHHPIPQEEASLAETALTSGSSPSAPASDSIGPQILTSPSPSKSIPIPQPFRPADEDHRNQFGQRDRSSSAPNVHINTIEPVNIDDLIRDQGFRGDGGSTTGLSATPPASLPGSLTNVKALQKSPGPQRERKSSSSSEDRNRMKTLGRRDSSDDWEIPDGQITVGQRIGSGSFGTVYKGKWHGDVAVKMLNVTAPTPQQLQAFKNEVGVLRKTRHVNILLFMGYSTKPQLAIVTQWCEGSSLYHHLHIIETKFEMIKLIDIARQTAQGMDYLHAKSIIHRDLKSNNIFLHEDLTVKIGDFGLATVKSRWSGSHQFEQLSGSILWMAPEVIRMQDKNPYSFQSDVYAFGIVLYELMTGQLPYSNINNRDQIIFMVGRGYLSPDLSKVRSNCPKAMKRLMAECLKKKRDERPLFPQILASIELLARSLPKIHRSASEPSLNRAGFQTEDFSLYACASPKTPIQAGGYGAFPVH

physchem [2] = conditions: octanol/water
Description: Distribution coefficient, logD of the compound

physchem [3] = conditions: aqueous, pH 6.8
Description: Aqueous solubility of the compound at pH 6.8

KYSE-520 cell line = assay: Antiproliferative activity against human KYSE-520 cells; format: functional, cell-based
[4] = octanol/water
Description: Lipophilicity, logP of the compound

[5] = Toxicity in mouse 3T3 cells under irradiation by NRU phototoxicity test; format: cell-based
[6] = target: T1, Tyrosine-protein phosphatase non-receptor type 11 (Homo sapiens) (UniProt Q06124); conditions: filed as negative allosteric modulator
T1 sequence (whole entry): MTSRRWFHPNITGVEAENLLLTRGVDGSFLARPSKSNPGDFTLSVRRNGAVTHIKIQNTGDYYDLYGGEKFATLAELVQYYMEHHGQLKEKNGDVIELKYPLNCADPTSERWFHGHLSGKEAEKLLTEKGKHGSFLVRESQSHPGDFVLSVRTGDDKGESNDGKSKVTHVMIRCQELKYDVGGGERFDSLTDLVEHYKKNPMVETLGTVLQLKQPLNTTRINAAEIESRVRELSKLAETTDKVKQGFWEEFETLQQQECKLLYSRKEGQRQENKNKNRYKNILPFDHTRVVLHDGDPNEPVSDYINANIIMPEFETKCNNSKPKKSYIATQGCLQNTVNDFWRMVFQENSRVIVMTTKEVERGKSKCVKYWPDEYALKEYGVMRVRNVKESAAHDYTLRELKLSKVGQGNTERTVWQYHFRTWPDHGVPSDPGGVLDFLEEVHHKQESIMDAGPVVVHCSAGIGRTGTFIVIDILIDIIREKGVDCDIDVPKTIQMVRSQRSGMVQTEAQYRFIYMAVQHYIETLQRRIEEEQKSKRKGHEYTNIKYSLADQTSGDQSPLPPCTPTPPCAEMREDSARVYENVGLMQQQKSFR

[7] = target: T2, Tyrosine-protein phosphatase non-receptor type 11 (Homo sapiens, UniProt Q06124)
T2 sequence (Q06124 whole entry): T1 sequence (whole entry)
Description: Allosteric inhibition of human SHP2 in human KYSE-520 cells assessed as reduction in ERK1/2 phosphorylation by fluorescence based assay

MIA PaCa-2 = assay: cells; conditions: Homo sapiens
Description: Antiproliferative activity against human MIA PaCa-2 cells

[8] = Volume of distribution at steady state in cynomolgus monkey at 0.3 mg/kg, iv by LC-MS/MS analysis; format: ADME, organism-based, Macaca fascicularis; conditions: in vivo, read-out: Vdss
[9] = Volume of distribution at steady state in C57BL/6 mouse at 1 mg/kg, iv by LC-MS/MS analysis; format: ADME, organism-based; conditions: in vivo, read-out: Vdss
[10] = Cmax/dose in cynomolgus monkey at 1 mg/kg, po by LC-MS/MS analysis; format: ADME, organism-based, Macaca fascicularis; conditions: in vivo
[11] = Cmax/dose in C57BL/6 mouse at 5 mg/kg, po by LC-MS/MS analysis; format: ADME, organism-based; conditions: in vivo
[12] = Oral bioavailability in C57BL/6 mouse at 5 mg/kg by LC-MS/MS analysis; format: ADME, organism-based; conditions: in vivo
[13] = Volume of distribution at steady state in Sprague-Dawley rat at 1 mg/kg, iv by LC-MS/MS analysis; format: ADME, organism-based; conditions: in vivo, read-out: Vdss
[14] = AUC/dose in cynomolgus monkey at 1 mg/kg, po by LC-MS/MS analysis; format: ADME, organism-based, Macaca fascicularis; conditions: in vivo
[15] = Cmax/dose in Sprague-Dawley rat at 5 mg/kg, po by LC-MS/MS analysis; format: ADME, organism-based; conditions: in vivo
[16] = Toxicity in NU/NU mouse xenografted with human KYSE-520 cells assessed as induction of body weight loss eat 2.5 to 20 mg/kg, po BID for 2 weeks; format: organism-based; conditions: in vivo, 336 h, dose 2.5-20 mg/kg
[17] = Clearance in Sprague-Dawley rat at 1 mg/kg, iv by LC-MS/MS analysis; format: ADME, organism-based; conditions: in vivo
[18] = Volume of distribution at steady state in beagle dog at 0.2 mg/kg, iv by LC-MS/MS analysis; format: ADME, organism-based, Canis lupus familiaris; conditions: in vivo, read-out: Vdss
[19] = AUC/dose in beagle dog at 1 mg/kg, po by LC-MS/MS analysis; format: ADME, organism-based, Canis lupus familiaris; conditions: in vivo
[20] = Terminal half life in Sprague-Dawley rat at 1 mg/kg, iv by LC-MS/MS analysis; format: ADME, organism-based; conditions: in vivo, read-out: beta t1/2 (converted)
[21] = Protein binding in beagle dog plasma; format: ADME, cell-free, Canis lupus familiaris; conditions: read-out: PPB (converted)
[22] = Oral bioavailability in beagle dog at 1 mg/kg by LC-MS/MS analysis; format: ADME, organism-based, Canis lupus familiaris; conditions: in vivo
[23] = AUC/dose in C57BL/6 mouse at 5 mg/kg, po by LC-MS/MS analysis; format: ADME, organism-based; conditions: in vivo
[24] = Protein binding in C57BL/6 mouse plasma; format: ADME, cell-free; conditions: read-out: PPB (converted)
[25] = Terminal half life in cynomolgus monkey at 0.3 mg/kg, iv by LC-MS/MS analysis; format: ADME, organism-based, Macaca fascicularis; conditions: in vivo, read-out: beta t1/2 (converted)
Cytochrome P450 2C9 = Cytochrome P450 2C9 (Homo sapiens, UniProt P11712); assay: Inhibition of CYP2C9 (unknown origin); format: ADME
Chain of Cytochrome P450 2C9 (P11712 whole entry): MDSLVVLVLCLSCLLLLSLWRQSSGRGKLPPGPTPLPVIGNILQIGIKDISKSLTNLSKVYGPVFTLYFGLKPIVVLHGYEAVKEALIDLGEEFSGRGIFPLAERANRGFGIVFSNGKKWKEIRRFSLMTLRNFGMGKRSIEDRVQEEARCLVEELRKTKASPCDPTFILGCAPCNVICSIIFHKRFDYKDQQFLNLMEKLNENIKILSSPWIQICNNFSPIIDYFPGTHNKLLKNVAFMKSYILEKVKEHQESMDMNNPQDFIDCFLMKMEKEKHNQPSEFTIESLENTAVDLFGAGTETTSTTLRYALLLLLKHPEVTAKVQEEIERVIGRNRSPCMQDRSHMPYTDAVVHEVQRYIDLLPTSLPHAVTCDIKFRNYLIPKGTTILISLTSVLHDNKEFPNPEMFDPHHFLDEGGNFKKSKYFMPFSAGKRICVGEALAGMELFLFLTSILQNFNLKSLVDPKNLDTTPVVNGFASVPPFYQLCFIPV

[26] = Clearance in cynomolgus monkey at 0.3 mg/kg, iv by LC-MS/MS analysis; format: ADME, organism-based, Macaca fascicularis; conditions: in vivo
[27] = Tmax in C57BL/6 mouse at 5 mg/kg, po by LC-MS/MS analysis; format: ADME, organism-based; conditions: in vivo
[28] = Protein binding in cynomolgus monkey plasma; format: ADME, cell-free, Macaca fascicularis; conditions: read-out: PPB (converted)
[29] = AUC/dose in beagle dog at 0.2 mg/kg, iv by LC-MS/MS analysis; format: ADME, organism-based, Canis lupus familiaris; conditions: in vivo
[30] = AUC/dose in C57BL/6 mouse at 1 mg/kg, iv by LC-MS/MS analysis; format: ADME, organism-based; conditions: in vivo
[31] = Cmax/dose in beagle dog at 1 mg/kg, po by LC-MS/MS analysis; format: ADME, organism-based, Canis lupus familiaris; conditions: in vivo
[32] = Terminal half life in C57BL/6 mouse at 1 mg/kg, iv by LC-MS/MS analysis; format: ADME, organism-based; conditions: in vivo, read-out: beta t1/2 (converted)
[33] = AUC/dose in Sprague-Dawley rat at 1 mg/kg, iv by LC-MS/MS analysis; format: ADME, organism-based; conditions: in vivo
Cytochrome P450 3A4 = Cytochrome P450 3A4 (Homo sapiens, UniProt P08684); assay: Inhibition of CYP3A4 (unknown origin); format: ADME
Chain of Cytochrome P450 3A4 (P08684 whole entry): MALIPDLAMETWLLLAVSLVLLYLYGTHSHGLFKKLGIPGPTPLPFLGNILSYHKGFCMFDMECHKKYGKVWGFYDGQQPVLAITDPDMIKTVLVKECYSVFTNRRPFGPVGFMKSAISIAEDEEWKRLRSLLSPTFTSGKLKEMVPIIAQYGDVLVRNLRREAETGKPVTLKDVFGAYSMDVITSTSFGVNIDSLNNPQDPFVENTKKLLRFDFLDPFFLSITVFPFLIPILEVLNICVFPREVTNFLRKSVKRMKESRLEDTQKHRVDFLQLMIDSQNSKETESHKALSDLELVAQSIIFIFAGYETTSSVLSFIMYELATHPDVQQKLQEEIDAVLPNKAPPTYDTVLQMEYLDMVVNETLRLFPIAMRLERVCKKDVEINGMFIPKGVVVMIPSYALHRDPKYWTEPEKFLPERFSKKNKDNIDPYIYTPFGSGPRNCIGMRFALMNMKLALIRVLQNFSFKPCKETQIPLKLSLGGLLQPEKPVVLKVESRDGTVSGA

[34] = Protein binding in Sprague-Dawley rat plasma; format: ADME, cell-free; conditions: read-out: PPB (converted)
[35] = Tmax in beagle dog at 1 mg/kg, po by LC-MS/MS analysis; format: ADME, organism-based, Canis lupus familiaris; conditions: in vivo
physchem [36] = conditions: octanol/water; remark: listed apart in the source
Description: Lipophilicity, logP of the compound

[37] = Terminal half life in beagle dog at 0.2 mg/kg, iv by LC-MS/MS analysis; format: ADME, organism-based, Canis lupus familiaris; conditions: in vivo, read-out: beta t1/2 (converted)
[38] = AUC/dose in Sprague-Dawley rat at 5 mg/kg, po by LC-MS/MS analysis; format: ADME, organism-based; conditions: in vivo
[39] = target: Voltage-gated inwardly rectifying potassium channel KCNH2 (Homo sapiens, UniProt Q12809)
Chain of Voltage-gated inwardly rectifying potassium channel KCNH2 (Q12809 whole entry): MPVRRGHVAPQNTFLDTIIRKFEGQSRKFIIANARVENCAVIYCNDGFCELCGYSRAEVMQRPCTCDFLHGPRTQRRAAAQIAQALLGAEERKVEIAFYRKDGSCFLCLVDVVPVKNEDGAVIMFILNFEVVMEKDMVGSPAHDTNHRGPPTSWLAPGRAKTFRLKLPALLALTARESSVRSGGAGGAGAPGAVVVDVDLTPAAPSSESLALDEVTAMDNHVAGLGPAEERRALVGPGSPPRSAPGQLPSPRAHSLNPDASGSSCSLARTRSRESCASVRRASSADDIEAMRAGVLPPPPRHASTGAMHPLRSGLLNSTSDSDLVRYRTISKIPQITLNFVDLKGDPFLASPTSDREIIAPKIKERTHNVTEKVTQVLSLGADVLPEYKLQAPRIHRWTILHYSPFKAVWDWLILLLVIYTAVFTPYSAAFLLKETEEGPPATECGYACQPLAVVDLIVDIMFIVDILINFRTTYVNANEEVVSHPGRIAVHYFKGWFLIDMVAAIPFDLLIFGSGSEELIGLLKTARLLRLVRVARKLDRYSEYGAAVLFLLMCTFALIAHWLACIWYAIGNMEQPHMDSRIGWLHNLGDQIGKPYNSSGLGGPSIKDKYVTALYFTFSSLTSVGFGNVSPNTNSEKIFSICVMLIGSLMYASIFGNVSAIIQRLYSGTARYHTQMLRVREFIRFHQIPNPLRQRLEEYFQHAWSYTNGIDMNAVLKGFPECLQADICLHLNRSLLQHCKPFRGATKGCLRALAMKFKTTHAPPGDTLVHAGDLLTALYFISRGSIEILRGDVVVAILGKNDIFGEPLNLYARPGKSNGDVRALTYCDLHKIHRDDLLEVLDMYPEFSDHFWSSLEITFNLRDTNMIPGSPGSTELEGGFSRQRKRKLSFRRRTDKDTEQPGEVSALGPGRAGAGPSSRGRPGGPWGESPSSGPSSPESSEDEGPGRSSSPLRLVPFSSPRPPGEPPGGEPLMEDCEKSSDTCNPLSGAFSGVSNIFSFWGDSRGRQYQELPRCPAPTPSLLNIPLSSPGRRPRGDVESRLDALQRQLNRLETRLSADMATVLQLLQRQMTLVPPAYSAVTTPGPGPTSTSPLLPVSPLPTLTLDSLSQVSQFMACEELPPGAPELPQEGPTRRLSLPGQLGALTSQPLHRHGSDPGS
Description: Inhibition of human ERG by Q-patch assay

Cytochrome P450 2D6 = Cytochrome P450 2D6 (Homo sapiens, UniProt P10635); assay: Inhibition of CYP2D6 (unknown origin); format: ADME
Chain of Cytochrome P450 2D6 (P10635 whole entry): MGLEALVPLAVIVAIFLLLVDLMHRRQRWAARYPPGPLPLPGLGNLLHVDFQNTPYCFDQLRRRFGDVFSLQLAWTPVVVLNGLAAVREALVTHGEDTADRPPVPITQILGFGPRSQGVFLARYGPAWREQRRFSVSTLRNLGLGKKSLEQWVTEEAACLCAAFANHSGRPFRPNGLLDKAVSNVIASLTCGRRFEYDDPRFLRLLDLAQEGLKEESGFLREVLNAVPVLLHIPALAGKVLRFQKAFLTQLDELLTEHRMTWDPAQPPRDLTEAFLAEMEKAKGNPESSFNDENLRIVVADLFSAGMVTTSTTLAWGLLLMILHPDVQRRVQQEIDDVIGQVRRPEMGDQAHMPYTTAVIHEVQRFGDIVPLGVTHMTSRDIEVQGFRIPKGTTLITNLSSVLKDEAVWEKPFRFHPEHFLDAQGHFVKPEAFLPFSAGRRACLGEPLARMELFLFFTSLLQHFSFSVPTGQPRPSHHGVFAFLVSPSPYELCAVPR

[40] = Tmax in cynomolgus monkey at 1 mg/kg, po by LC-MS/MS analysis; format: ADME, organism-based, Macaca fascicularis; conditions: in vivo
[41] = Oral bioavailability in Sprague-Dawley rat at 5 mg/kg by LC-MS/MS analysis; format: ADME, organism-based; conditions: in vivo
[42] = Tmax in Sprague-Dawley rat at 5 mg/kg, po by LC-MS/MS analysis; format: ADME, organism-based; conditions: in vivo
[43] = Oral bioavailability in cynomolgus monkey at 1 mg/kg by LC-MS/MS analysis; format: ADME, organism-based, Macaca fascicularis; conditions: in vivo
[44] = AUC/dose in cynomolgus monkey at 0.3 mg/kg, iv by LC-MS/MS analysis; format: ADME, organism-based, Macaca fascicularis; conditions: in vivo
[45] = Clearance in beagle dog at 0.2 mg/kg, iv by LC-MS/MS analysis; format: ADME, organism-based, Canis lupus familiaris; conditions: in vivo
[46] = target: T2, Tyrosine-protein phosphatase non-receptor type 11; assay: Allosteric inhibition of 6x-histidine tagged human SHP2 (Met1-L525 residues) expressed in Escherichia coli BL21 Star (DE3) using IRS1_pY1172(dPEG8)[…] incubated for 30 mins by fluorescence based DIFMUP assay

`Cc1ccc(NC(=O)c2ccnc(C(F)(F)F)c2)cc1-c1cc(OCCO)nc(N2CCOCC2)c1` [NAPORAFENIB] showed an IC50 (A-375) of 240 nM and an IC50 [1] of 78 nM.

For `CC1(N)CCN(c2cnc(-c3cccc(Cl)c3Cl)c(N)n2)CC1`, the logD (physchem [2]) was 0.92, the solubility (physchem [3]) was 290 µM (≈ 102 µg/mL) and the IC50 (KYSE-520 cell line; Homo sapiens, KYSE-520) was 2500 nM. The logP [4] was 2.6, the IC50 [5] was 4500 nM and the ΔTm [6] was 7.5 °C.

`CC1(CN)CCN(c2cnc(Sc3cccc(N)c3Cl)c(N)n2)CC1` gave an IC50 [7] of 89 nM.

Compound `CC1(N)CCN(c2cnc(Sc3ccccc3Cl)c(N)n2)CC1` has an IC50 (KYSE-520 cell line; kyse-520) of 8140 nM and an IC50 [7] of 251 nM.

In the case of `C=C(F)C(=O)N1CCN(c2nc(OC[C@@H]3CCCN3C)nc3c2CCN(c2cccc4cccc(Cl)c24)C3)C[C@@H]1CC#N` [ADAGRASIB], the IC50 (MIA PaCa-2) is reported as 100 nM.

`CC1(CN)CCN(c2cnc(-c3cccc(Cl)c3Cl)c(N)n2)CC1` gave an IC50 (KYSE-520 cell line; Homo sapiens, KYSE-520) of 5540 nM.

With `Nc1nc(N2CCC3(CCC[C@H]3N)CC2)cnc1Sc1cccnc1C(F)(F)F` the IC50 (KYSE-520 cell line; Homo sapiens, KYSE-520) was 1160 nM.

In the case of `C[C@@H]1OCC2(CCN(c3cnc(Sc4ccnc(N)c4Cl)c(N)n3)CC2)[C@@H]1N` [BATOPROTAFIB], the Vd [8] is reported as 4 L/kg, the Vd [9] is reported as 3 L/kg and the Cmax/dose [10] is reported as 286 nM. The Cmax/dose [11] was 357 nM, the bioavailability [12] was 78% and the Vd [13] was 7 L/kg. For the same compound, the AUC/dose [14] was 3848 nM·h, the Cmax/dose [15] was 657 nM and the Activity [16] was “Non-Toxic”. For the same compound, the clearance [17] was 15 mL/min/kg, the Vd [18] was 3 L/kg and the AUC/dose [19] was 15854 nM·h. The half-life [20] was 8 h, the logD (physchem [2]) was 0.6 and the fraction unbound [21] was 0.36. For the same compound, the bioavailability [22] was > 100%, the AUC/dose [23] was 1190 nM·h and the fraction unbound [24] was 0.24. The half-life [25] was 9 h, the “inhibition (INH)” value (Cytochrome P450 2C9) was “Not Active” and the clearance [26] was 6 mL/min/kg. For the same compound, the Tmax [27] was 0.8 h, the fraction unbound [28] was 0.39 and the AUC/dose [29] was 10690 nM·h. The solubility (physchem [3]) was 736 µM (≈ 311 µg/mL), the AUC/dose [30] was 1530 nM·h and the Cmax/dose [31] was 1207 nM. For the same compound, the half-life [32] was 2 h, the AUC/dose [33] was 2407 nM·h and the “inhibition (INH)” value (Cytochrome P450 3A4) was “Not Active”. For the same compound, the fraction unbound [34] was 0.19, the Tmax [35] was 2 h and the logP (physchem [36]) was 1.6. The half-life [37] was 9 h, the AUC/dose [38] was 2483 nM·h and the IC50 [39] was > 30000 nM. For the same compound, the “inhibition (INH)” value (Cytochrome P450 2D6) was “Not Active”, the IC50 (KYSE-520 cell line; kyse-520) was 100 nM and the Tmax [40] was 2 h. For the same compound, the bioavailability [41] was 100%, the Tmax [42] was 1 h and the bioavailability [43] was 60%. It also gave an IC50 [5] of 666000 nM, an AUC/dose [44] of 6438 nM·h and a clearance [45] of 4 mL/min/kg.

For `Nc1nc(N2CCC3(CC2)COC[C@H]3N)cnc1Sc1ccnc(N)c1Cl`, the logD (physchem [2]) was 0.2, the solubility (physchem [3]) was 787 µM (≈ 321 µg/mL) and the logP (physchem [36]) was 1.1. For the same compound, the IC50 [39] was > 25000 nM, the IC50 (KYSE-520 cell line; Homo sapiens, KYSE-520) was 665 nM and the IC50 [7] was 99 nM.

Compound `CC1(N)CCN(c2cnc(Sc3cccnc3C(F)(F)F)c(N)n2)CC1` has a logD (physchem [2]) of -0.5, a solubility (physchem [3]) of 85 µM (≈ 32.7 µg/mL) and a logP (physchem [36]) of 2. For the same compound, the IC50 [46] was 67 nM, the IC50 [39] was 17400 nM and the IC50 [7] was 339 nM.

`CC(=O)Nc1cccc(-n2c(=O)n(C3CC3)c(=O)c3c(Nc4ccc(I)cc4F)n(C)c(=O)c(C)c32)c1` [TRAMETINIB] gave an IC50 (KYSE-520 cell line; Homo sapiens, KYSE-520) of 10 nM.
